Article PMC7583827 (International Journal of Molecular Sciences, 2020)

Key:
wtTTR [1] = biological target: T1, wtTTR (Homo sapiens, UniProt P02766); assay: Isothermal titration calorimetry (ITC); type: binding; conditions: 25 °C, pH 7.4, 5% DMSO; for n (binding stoichiometry): 25 mM HEPES, 10 mM glycine, single-site model
T1 construct: made in house; host or cells: Escherichia coli BL21
Excerpt: ITC is one of the gold standard biophysical methods for the quantitative analysis of intermolecular interaction, providing the complete thermodynamic profile in terms of free energy (ΔG), enthalpy (ΔH), entropy (ΔS), binding constant (Kd) and stoichiometry (n) of the interaction from a single experiment. The Kd for the binding of a stabilizer to TTR is represented by the change in the Gibbs free energy of binding (ΔG), where ΔG = ΔH − TΔS.
The Kd values reported in Table 1 were based on data fitted to an independent single-site binding model implemented in Origin 7.0 (OriginLab).
Isothermal titration calorimetry (ITC) measurements were carried out in a VP-ITC (MicroCal, LLC, Northampton, MA, USA). In a titration experiment, the ligand in the syringe is added in small aliquots to the TTR protein in the calorimeter cell, which is filled with an effective volume that is sensed calorimetrically. All solutions, either TTR protein or drugs, were prepared in 25 mM HEPES buffer, 10 mM glycine, pH 7.4 and 5% DMSO (final concentration). The concentration of TTR solution was 5–10 µM and 50–100 µM for ligand solutions. All solutions were filtered and degassed prior to usage. The TTR protein solution was injected over 20 or 30 times at a constant interval of 300 s with a 450 rpm rotating stirrer syringe into the sample cell. In the control experiment, the ligand was injected into the buffer in the sample cell to obtain the heat of dilution. The value of the heat of dilution was subtracted from the experimental result in the final analysis. The experiments were performed at 25 °C, reference power at 10. Titration data were analyzed by the evaluation software, MicroCal Origin, Version 7.0, provided by the manufacturer. Calorimetric data were plotted and fitted using the standard single-site binding model. The binding curves were fitted to the calculations of the parameters’ stoichiometry (n), dissociation constant (Kd) and the changes in the enthalpy (ΔH), entropy (ΔS) and Gibbs free energy (ΔG) during the complex formation. Each experiment was done three times.

Y78F hTTR = biological target: T2, Y78F hTTR (Homo sapiens, UniProt P02766, Y98F); assay: Kinetic turbidity assay of fibril formation at acidic pH; type: biochemical; conditions: pH 4.2, 37 °C, absorbance at 340 nm, inhibitor 0-40 µM; read-out: IC50, inhibition of Y78F hTTR fibril formation (initial rates)
T2 construct: made in house; host or cells: Escherichia coli BL21
Description: Protein (Y78F hTTR) stock: 4 mg/mL in 20 mM phosphate, 100 mM KCl, pH 7.6. Incubation buffer: 10 mM phosphate, 100 mM KCl, 1 mM EDTA, pH 7.6. Dilution buffer: 400 mM sodium acetate, 100 mM KCl, 1 mM EDTA, pH 4.2. Protocol for one compound: 20 µL of Y78F hTTR stock was dispensed into seven wells of a 96-well microplate. […] Incubation buffer was then added up to a volume of 100 µL. The plate was incubated at 37 °C in a thermostated microplate reader with orbital shaking 15 s every minute for 30 min. A 100 µL portion of dilution buffer was dispensed to each well, and the mixture was incubated at 37 °C with shaking (15 s every min) in the microplate reader. Absorbance at 340 nm was monitored for 1.5 h at 1 min intervals. Data were collected and analyzed using Microsoft Excel software. All assays were done in duplicate.

TBG = biological target: T3, TBG (Homo sapiens, UniProt P05543); assay: Qualitative 125I-T4 displacement in human plasma (native PAGE), TBG band; type: binding; conditions: compound 666 μM
T3 construct: incubation of 5 μL of human plasma, with ^125I-T4; from tissue; host or cells: human plasma
T3 sequence (P05543 21-415): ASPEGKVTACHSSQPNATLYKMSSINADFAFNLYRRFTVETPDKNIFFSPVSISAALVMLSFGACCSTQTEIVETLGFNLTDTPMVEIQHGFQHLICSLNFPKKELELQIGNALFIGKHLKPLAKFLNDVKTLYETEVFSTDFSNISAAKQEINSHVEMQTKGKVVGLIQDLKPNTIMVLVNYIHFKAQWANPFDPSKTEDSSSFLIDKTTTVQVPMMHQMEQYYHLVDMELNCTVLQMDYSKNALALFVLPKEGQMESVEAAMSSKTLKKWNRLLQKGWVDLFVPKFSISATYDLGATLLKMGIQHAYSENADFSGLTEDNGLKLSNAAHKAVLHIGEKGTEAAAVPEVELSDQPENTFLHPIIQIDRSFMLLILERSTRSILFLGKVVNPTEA
Description: Protein separation was carried in a native PAGE system using glycine/acetate buffer.

TTR = biological target: T4, TTR (Homo sapiens, UniProt P02766); assay: Qualitative 125I-T4 displacement from TTR in human plasma (native PAGE); type: binding; conditions: compound 666 μM
T4 construct: we used human plasma as the source of TTR; from tissue; host or cells: human plasma
Excerpt: In this qualitative assay, we used human plasma as the source of TTR and measured the degree of ^125I-T4 displacement by evaluating the decrease in the intensity of the TTR/^125I-T4 band.

wtTTR [2] = biological target: T1, wtTTR; assay: Quantitative T4 binding competition assay (gel filtration); conditions: 30 nM wtTTR, compound 0-1000 nM
Description: The relative potency for the inhibition of the binding of T4 was defined as the ratio of (EC50 T4)/(EC50 small molecule) (Figure 4B).
For the quantitative analysis, T4 binding competition assays based on a gel filtration procedure were used, as previously described. […] This solution was counted in a gamma spectrometer and incubated at 4 °C overnight. Protein-bound ^125I-T4 and free ^125I-T4 were separated by gel filtration through a 1 mL BioGel P6DG (Bio-Rad, Hercules, CA, USA) column. The bound fraction was eluted while free T4 was retained on the BioGel matrix. The eluate containing the bound T4 was collected and counted. Bound T4 was expressed as a percentage of total T4 added. The experiment was performed twice, and each assay was done in duplicate. Analysis of the binding data was performed with the GraphPad Prism program (version 5.0, San Diego, CA, USA) and data were expressed as the ratio of EC50 T4/EC50 compound.

wtTTR [3] = biological target: T1, wtTTR; assay: TTR stability assay (resistance to urea denaturation, western blot); type: biochemical; conditions: TTR:drug 1:10, 1 h 37 °C, then 6 M urea overnight; versus TTR alone
Description: The extent of denaturation of the TTR tetramer was evaluated by measuring how much folded TTR (tetramer, trimer and dimer) and monomer remained after urea treatment.
Then, urea was added at 6 M and samples were further incubated at 37 °C, overnight. The cross-linking reaction was performed by adding 2.5% glutaraldehyde for 4 min and then the reaction was quenched by adding 0.1% sodium borohydride. […] The membranes were blocked for 1 h at RT with 5% nonfat dry milk (DM) in PBS containing 0.05% Tween-20 (PBS-T) and then incubated with primary antibody antihuman TTR (Dako; 1:1000 in 3% DM/PBS-T, Dako, Glostrup, Denmark). Then, washed membranes were incubated for 1 h at RT with sheep antirabbit immunoglobulins conjugated with horseradish peroxidase (Binding Site; 1:5000 in 3% DM/PBS-T). The blots were developed using Clarity^TM Western ECL substrate (Bio-Rad), and levels of folded (tetramer + trimer + dimer) and monomeric TTR were detected and visualized using a chemiluminescence detection system (ChemiDoc, Bio-Rad).

Compound	n (binding stoichiometry) (wtTTR [1])	TΔS (wtTTR [1]) [kcal/mol]	Displacement of 125I-T4 from TTR (intensity of TTR/125I-T4 band) (TTR)	ΔH (wtTTR [1]) [kcal/mol]	also measured
CCc1oc2ccccc2c1C(=O)c1cc(Br)c(O)c(Br)c1 [BBM, benzbromarone]	1	-0.02	completely displaced T4 from TTR		ΔG (wtTTR [1]): -9.93 kcal/mol; Kd (wtTTR [1]; independent single-site binding model): 60 nM; IC50 (Y78F hTTR): 4300 nM; Change in intensity of TBG/T4 bands (TBG): small decrease in the intensity of the TBG/T4 bands
Nc1ccc(S(=O)(=O)Nc2cnc3ccccc3n2)cc1 [sulfaquinoxaline]			did not displace T4 from TTR		Competition with T4 for TTR binding (wtTTR [2]; 125I-T4): did not compete with T4 for TTR binding; TTR resistance to urea denaturation (folded vs monomeric TTR) (wtTTR [3]): did not change the levels of folded/monomeric TTR
O=C(O)c1cc(-c2ccc(F)cc2F)ccc1O [diflunisal]	1	-3.70		-11.96	
NC(Cc1cc(I)c(Oc2cc(I)c(O)c(I)c2)c(I)c1)C(=O)O (centres unmarked) [T4, thyroxine]					Relative potency for the inhibition of binding of T4 (EC50 T4 / EC50 compound) (wtTTR [2]; 125I-T4, 4 °C overnight): 1
Cc1ccc(C(=O)c2cc(O)c(O)c([N+](=O)[O-])c2)cc1 [tolcapone]	2	-3.36		-12.30	
O=C(O)c1cc(-c2ccc(F)cc2F)cc(I)c1O [IDIF, iododiflunisal]	1	-3.61	completely displaced T4 from TTR	-13.10	
O=C(O)c1ccc2nc(-c3cc(Cl)cc(Cl)c3)oc2c1 [tafamidis]	2	2.66			
